Reference: patent US11440913B2, “Aminoimidazopyridazines as kinase inhibitors” (BRISTOL-MYERS SQUIBB COMPANY, priority 2017, dated 2022)

Tests used:
[1] = molecular target: His-GST-TVMV-hRIPK1(1-324) (Homo sapiens (Human), UniProt Q13546); test: RIPK1 HTRF Binding Assay; conditions: HTRF binding, 1 h at rt; read-out: RIPK1 (IC50)
Method in brief: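 HTRF probe-displacement binding: 1 nM His-GST-TVMV-hRIPK1(1-324) (baculovirus construct), 90.6 nM probe, 0.2 nM anti-GST-Tb in 20 mM HEPES, 10 mM MgCl2, 0.015% Brij-35, 4 mM DTT, 0.05 mg/mL BSA. Incubated 1 h at rt; FRET 520/495 nm ratio, inhibition relative to DMSO-only wells.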

[2] = tested on: MLKL phosphorylation in HT29-L23 human colorectal adenocarcinoma cells; test: MLKL Phosphorylation High-Content Assay; assay type: cell-based; conditions: Homo sapiens, 6 h, necroptosis induced with TNFα, SMAC mimetic and Z-VAD, read-out: pMLKL (IC50)
Method in brief: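 HT29-L23 cells pretreated 30 min at 37 °C with compound (6.25 to 0.106 μM final), then necroptosis induced with TNFα 35 ng/mL, SMAC mimetic 700 nM and Z-VAD 140 nM for 6 h. Fixed cells immunostained for MLKL pS358 and imaged; IC50 and Ymax from 4-parameter logistic fit.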

Sequence of His-GST-TVMV-hRIPK1(1-324) (Q13546 1-324): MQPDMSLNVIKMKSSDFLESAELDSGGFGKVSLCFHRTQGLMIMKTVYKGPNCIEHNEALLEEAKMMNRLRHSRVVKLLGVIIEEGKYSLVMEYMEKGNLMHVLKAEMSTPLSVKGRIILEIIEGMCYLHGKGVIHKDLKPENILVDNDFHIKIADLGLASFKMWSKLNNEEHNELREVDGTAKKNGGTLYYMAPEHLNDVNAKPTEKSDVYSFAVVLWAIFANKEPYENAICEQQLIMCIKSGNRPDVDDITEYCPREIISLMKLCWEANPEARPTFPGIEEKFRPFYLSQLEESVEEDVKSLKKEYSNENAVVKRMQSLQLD

SMILES	IC50 [1]	IC50 [2]
CC(=O)Nc1cn2nc(-c3cc(F)c(C)c(C(=O)NCc4cc(OC(F)(F)F)ccc4F)c3)ccc2n1 [Example 359, 5-{2-acetamidoimidazo [1,2-b]pyridazin-6-yl}-3-fluoro-N-{[2-fluoro-5-(trifluoromethoxy)phenyl]methyl}-2-methylbenzamide]	78 nM	5 nM
CC(=O)Nc1cn2nc(-c3cc(F)c(C)c(C(=O)N[C@@H](C)c4cc(OC(F)(F)F)ccc4F)c3)ccc2n1 [Example 360, 5-{2-acetamidoimidazo [1,2-b]pyridazin-6-yl}-3-fluoro-N-[(1S)-1-[2-fluoro-5-(trifluoromethoxy)phenyl]ethyl]-2-methylbenzamide]	6 nM	9 nM
CC(=O)Nc1cn2nc(-c3cc(F)c(C)c(C(=O)NCc4cccc(OC(F)(F)F)c4F)c3)ccc2n1 [Example 361, 5-{2-acetamidoimidazo [1,2-b]pyridazin-6-yl}-3-fluoro-N-{[2-fluoro-3-(trifluoromethoxy)phenyl]methyl}-2-methylbenzamide]	42 nM	135 nM
Cc1c(F)cc(-c2ccc3nc(NC(=O)CN(C)C)cn3n2)cc1C(=O)NCC[C@H](O)c1ccc(Cl)cc1 [Example 362, N-[(3S)-3-(4-chlorophenyl)-3-hydroxypropyl]-5-{2-[2-(dimethylamino)acetamido]imidazo[1,2-b]pyridazin-6-yl}-3-fluoro-2-methylbenzamide]	6 nM	5 nM
CNCC(=O)Nc1cn2nc(-c3cc(F)c(C)c(C(=O)NCC[C@H](O)c4ccc(Cl)cc4)c3)ccc2n1 [Example 363, N-[(3S)-3-(4-chlorophenyl)-3-hydroxypropyl]-3-fluoro-2-methyl-5-{2-[2-(methylamino)acetamido]imidazo[1,2-b]pyridazin-6-yl}benzamide]	65 nM	47 nM
CC(=O)Nc1cn2nc(-c3cc(F)c(C)c(C(=O)NCc4ccccc4Oc4ccccc4)c3)ccc2n1 [Example 364, 5-{2-acetamidoimidazo [1,2-b]pyridazin-6-yl}-3-fluoro-2-methyl-N-[(2-phenoxyphenyl)methyl] benzamide]	7 nM	7 nM
CC(=O)Nc1cn2nc(-c3cc(F)c(C)c(C(=O)NCc4c(F)cccc4C(=O)N4CCC(F)(F)C4)c3)ccc2n1 [Example 365, N-{[2-(3,3-difluoropyrrolidine-1-carbonyl)-6-fluorophenyl]methyl}-5-{2-acetamidoimidazo [1,2-b]pyridazin-6-yl}-3-fluoro-2-methylbenzamide]	37 nM	116 nM
CC(=O)Nc1cn2nc(-c3cc(F)c(F)c(C(=O)NCc4cc(OC(F)(F)F)ccc4F)c3)ccc2n1 [Example 366, 5-{2-acetamidoimidazo [1,2-b]pyridazin-6-yl}-2,3-difluoro-N-{[2-fluoro-5-(trifluoromethoxy)phenyl]methyl} benzamide]	13 nM	123 nM
CC(=O)Nc1cn2nc(-c3cc(F)c(F)c(C(=O)N[C@H](C)c4cc(OC(F)(F)F)ccc4F)c3)ccc2n1 [Example 367, 5-{2-acetamidoimidazo [1,2-b]pyridazin-6-yl}-2,3-difluoro-N-[(1R)-1-[2-fluoro-5-(trifluoromethoxy)phenyl]ethyl] benzamide]	56 nM	194 nM
CC(=O)Nc1cn2nc(-c3c(F)c(F)cc(C(=O)NCc4cc(OC(F)(F)F)ccc4F)c3F)ccc2n1 [Example 368, 3-{2-acetamidoimidazo [1,2-b]pyridazin-6-yl}-2,4,5-trifluoro-N-{[2-fluoro-5-(trifluoromethoxy)phenyl]methyl} benzamide]	25 nM	31 nM
CC(=O)Nc1cn2nc(-c3cc(F)cc(C(=O)NCC[C@@H](O)c4ccc(Cl)cc4)c3)ccc2n1 [Example 370, N-[(3R)-3-(4-chlorophenyl)-3-hydroxypropyl]-3-{2-acetamidoimidazo [1,2-b]pyridazin-6-yl}-5-fluorobenzamide]	34 nM	210 nM
COc1c(F)cc(-c2ccc3nc(NC(C)=O)cn3n2)cc1C(=O)NCc1cc(OC(F)(F)F)ccc1F [Example 371, 5-{2-acetamidoimidazo [1,2-b]pyridazin-6-yl}-3-fluoro-N-{[2-fluoro-5-(trifluoromethoxy)phenyl]methyl}-2-methoxybenzamide]	5 nM	15 nM
CC(=O)Nc1cn2nc(-c3cc(C(=O)NCc4cc(C(F)(F)F)ccc4F)cc(F)c3C)ccc2n1 [Example 372, 3-{2-acetamidoimidazo [1,2-b]pyridazin-6-yl}-5-fluoro-N-{[2-fluoro-5-(trifluoromethyl)phenyl]methyl}-4-methylbenzamide]	13 nM	122 nM
CC(=O)Nc1cn2nc(-c3cc(C(=O)NCC[C@@H](O)c4ccc(Cl)cc4)cc(F)c3C)ccc2n1 [Example 373, N-[(3R)-3-(4-chlorophenyl)-3-hydroxypropyl]-3-{2-acetamidoimidazo [1,2-b]pyridazin-6-yl}-5-fluoro-4-methylbenzamide]	11 nM	51 nM
COc1ccc(-c2ccc3nc(NC(C)=O)cn3n2)c(F)c1C(=O)N[C@@H](C)c1cc(OC(F)(F)F)ccc1F [Example 375, 3-{2-acetamidoimidazo [1,2-b]pyridazin-6-yl}-2-fluoro-N-[(1S)-1[2-fluoro-5-(trifluoromethoxy)phenyl]ethyl]-6-methoxybenzamide]	12 nM	3 nM
COc1ccc(-c2ccc3nc(NC(C)=O)cn3n2)c(F)c1C(=O)NCc1cc(F)ccc1C(=O)N1CCC(F)(F)C1 [Example 376]	9 nM	9 nM
COc1ccc(-c2ccc3nc(NC(C)=O)cn3n2)c(F)c1C(=O)NCc1ccccc1OCC1CC1 [Example 377, N-{[2-(cyclopropylmethoxy)phenyl]methyl}-3-{2-acetamidoimidazo [1,2-b]pyridazin-6-yl}-2-fluoro-6-methoxybenzamide]	67 nM	135 nM
[2H]C([2H])([2H])[C@@H](NC(=O)c1c(OC)ccc(-c2ccc3nc(NC(C)=O)cn3n2)c1F)c1cc(OC(F)(F)F)ccc1F [Example 378, 3-{2-acetamidoimidazo [1,2-b]pyridazin-6-yl}-2-fluoro-N-[(1R)-1-[2-fluoro-5-(trifluoromethoxy)phenyl](2,2,2-Â^2Hâ,f)ethyl]-6-methoxybenzamide]	6 nM	1 nM
CC(=O)Nc1cn2nc(-c3ccc(F)c(C(=O)N[C@@H](C)c4cc(OC(F)(F)F)ccc4F)c3F)ccc2n1 [Example 379, 3-{2-acetamidoimidazo [1,2-b]pyridazin-6-yl}-2,6-difluoro-N-[(1S)-1-[2-fluoro-5-(trifluoromethoxy)phenyl]ethyl] benzamide]	1 nM	5 nM
[2H]C([2H])([2H])[C@@H](NC(=O)c1c(F)ccc(-c2ccc3nc(NC(C)=O)cn3n2)c1F)c1cc(OC(F)(F)F)ccc1F [Example 380, 3-{2-acetamidoimidazo [1,2-b]pyridazin-6-yl}-2,6-difluoro-N-[(1R)-1-[2-fluoro-5-(trifluoromethoxy)phenyl](2,2,2-Â^2Hâ,f)ethyl} benzamide]	3 nM	9 nM
CC(=O)Nc1cn2nc(-c3ccc(F)c(C(=O)NCc4cc(F)ccc4C(=O)N4CCC(F)(F)CC4)c3F)ccc2n1 [Example 381, N-{[2-(4,4-difluoropiperidine-1-carbonyl)-5-fluorophenyl]methyl}-3-{2-acetamidoimidazo [1,2-b]pyridazin-6-yl}-2,6-difluorobenzamide]	8 nM	74 nM
CC(=O)Nc1cn2nc(-c3cc(C(=O)NCC[C@@H](O)c4ccc(Cl)cc4)c(C)cc3C)ccc2n1 [Example 382, N-[(3R)-3-(4-chlorophenyl)-3-hydroxypropyl]-5-{2-acetamidoimidazo [1,2-b]pyridazin-6-yl}-2,4-dimethylbenzamide]	4 nM	2 nM
CC(=O)Nc1cn2nc(-c3cc(C(=O)NCC[C@H](O)c4ccc(Cl)cc4)c(C)cc3C)ccc2n1 [Example 383, N-[(3S)-3-(4-chlorophenyl)-3-hydroxypropyl]-5-{2-acetamidoimidazo [1,2-b]pyridazin-6-yl}-2,4-dimethylbenzamide]	3 nM	3 nM
CC(=O)Nc1cn2nc(-c3cc(C(=O)NCc4cc(C(F)(F)F)cc(Cl)c4F)c(C)cc3C)ccc2n1 [Example 384, N-{[3-chloro-2-fluoro-5-(trifluoromethyl)phenyl]methyl}-5-{2-acetamidoimidazo [1,2-b]pyridazin-6-yl}-2,4-dimethylbenzamide]	48 nM	99 nM
CC(=O)Nc1cn2nc(-c3ccc(C(F)(F)F)c(C(=O)NCc4cc(C(F)(F)F)ccc4F)c3)ccc2n1 [Example 385, 5-{2-acetamidoimidazo [1,2-b]pyridazin-6-yl}-N-{[2-fluoro-5-(trifluoromethyl)phenyl]methyl}-2-(trifluoromethyl) benzamide]	57 nM	189 nM
CC(=O)Nc1cn2nc(-c3ccc(Cl)c(C(=O)NCC[C@@H](O)c4ccc(Cl)cc4)c3)ccc2n1 [Example 386, 2-chloro-N-[(3R)-3-(4-chlorophenyl)-3-hydroxypropyl]-5-{2-acetamidoimidazo [1,2-b]pyridazin-6-yl}benzamide]	5 nM	13 nM
CC(=O)Nc1cn2nc(-c3ccc(Cl)c(C(=O)NCc4cc(F)ccc4C(=O)N4CCC(F)(F)C4)c3)ccc2n1 [Example 387, 2-chloro-N-{[2-(3,3-difluoropyrrolidine-1-carbonyl)-5-fluorophenyl]methyl}-5-{2-acetamidoimidazo [1,2-b]pyridazin-6-yl}benzamide]	8 nM	5 nM
